Read-outs that look alike come from different tables or passages of the source.
Tests used:
Aurora-1 (Aurora B) = Aurora-1 (Aurora B) (Homo sapiens, UniProt Q96GD4); experiment: Aurora-1 (Aurora B) inhibition assay (radiometric); format: biochemical; conditions: read-out: Aurora B kinase Ki value
Description: An assay buffer solution was prepared which consisted of 25 mM HEPES (pH 7.5), 10 mM MgCl2, 0.1% BSA and 10% glycerol. […] To 22 μL of the Aurora-B solution, in a 96-well plate, was added 2 μl of a compound stock solution in DMSO and the mixture allowed to equilibrate for 10 minutes at 25° C. The enzyme reaction was initiated by the addition of 16 μl stock [γ-^33P]-ATP solution (˜20 nCi/μL) prepared in assay buffer, to a final assay concentration of 800 μM. The reaction was stopped after 3 hours by the addition of 16 μL 500 mM phosphoric acid and the levels of ^33P incorporation into the peptide substrate were determined by the following method.
A phosphocellulose 96-well plate (Millipore, Cat no. MAPHNOB50) was pre-treated with 100 μL of a 100 mM phosphoric acid prior to the addition of the enzyme reaction mixture (40 μL). The solution was left to soak on to the phosphocellulose membrane for 30 minutes and the plate subsequently washed four times with 200 μL of a 100 mM phosphoric acid. […] Levels of non-enzyme catalyzed background radioactivity were determined by adding 16 μL of the 500 mM phosphoric acid to control wells, containing all assay components (which acts to denature the enzyme), prior to the addition of the [γ-^33P]-ATP solution. Levels of enzyme catalyzed. ^33P incorporation were calculated by subtracting mean background counts from those measured at each inhibitor concentration. […] Ki values were calculated from initial rate data by non-linear regression using the Prism software package (Prism 3.0, Graphpad Software, San Diego, Calif.).

JAK3 = target: T1, JAK3 (Homo sapiens, UniProt P52333); experiment: biochemical
T1 sequence (P52333 1-1124): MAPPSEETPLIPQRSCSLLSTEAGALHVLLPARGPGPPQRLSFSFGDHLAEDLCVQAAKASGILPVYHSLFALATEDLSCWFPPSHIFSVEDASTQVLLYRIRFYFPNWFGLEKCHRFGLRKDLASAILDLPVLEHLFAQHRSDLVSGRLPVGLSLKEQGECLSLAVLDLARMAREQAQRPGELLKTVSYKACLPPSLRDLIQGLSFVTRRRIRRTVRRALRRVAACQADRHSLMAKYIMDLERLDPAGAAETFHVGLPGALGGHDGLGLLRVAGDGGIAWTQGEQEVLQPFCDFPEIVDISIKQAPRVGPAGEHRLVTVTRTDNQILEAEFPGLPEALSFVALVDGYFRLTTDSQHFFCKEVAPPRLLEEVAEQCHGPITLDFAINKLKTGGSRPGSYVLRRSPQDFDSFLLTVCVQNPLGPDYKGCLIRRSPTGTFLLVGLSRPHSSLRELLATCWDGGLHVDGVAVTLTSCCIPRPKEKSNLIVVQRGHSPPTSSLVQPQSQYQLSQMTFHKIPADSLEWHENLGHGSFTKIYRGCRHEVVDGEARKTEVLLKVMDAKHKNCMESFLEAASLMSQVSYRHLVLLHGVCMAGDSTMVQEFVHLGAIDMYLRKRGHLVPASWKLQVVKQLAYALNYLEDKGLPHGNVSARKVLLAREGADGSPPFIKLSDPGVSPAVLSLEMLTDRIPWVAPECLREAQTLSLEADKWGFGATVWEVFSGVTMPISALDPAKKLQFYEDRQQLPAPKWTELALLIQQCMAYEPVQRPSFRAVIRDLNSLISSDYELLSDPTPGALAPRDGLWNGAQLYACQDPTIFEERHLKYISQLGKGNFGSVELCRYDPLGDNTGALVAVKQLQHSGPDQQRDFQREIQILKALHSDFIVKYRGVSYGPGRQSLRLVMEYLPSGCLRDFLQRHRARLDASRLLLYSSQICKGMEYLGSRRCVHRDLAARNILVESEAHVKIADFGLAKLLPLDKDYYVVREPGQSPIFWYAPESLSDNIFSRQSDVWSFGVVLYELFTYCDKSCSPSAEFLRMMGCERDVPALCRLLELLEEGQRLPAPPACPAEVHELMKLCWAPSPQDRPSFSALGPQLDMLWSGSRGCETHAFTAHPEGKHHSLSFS

Colo205 cells = experiment: Analysis of cell proliferation and viability; format: cell-based; conditions: Homo sapiens, read-out: IC50 value
Description: Colo205 cells were seeded in 96 well plates and serially diluted compound was added to the wells in duplicate. Control groups included untreated cells, the compound diluent (0.1% DMSO alone) and culture medium without cells.
To measure proliferation, 3 h prior to the end of the experiment 0.5 μCi of 3H thymidine was added to each well. Cells were then harvested and the incorporated radioactivity counted on a Wallac microplate beta-counter. Cell viability was assessed using Promega CellTiter 96AQ to measure MTS conversion. Dose response curves were calculated using either Prism 3.0 (GraphPad) or SoftMax Pro 4.3.1 LS (Molecular Devices) software.

Aurora-2 (Aurora A) = target: T2, Aurora-2 (Aurora A) (Homo sapiens, UniProt O14965); experiment: Aurora-2 (Aurora A) inhibition assay, coupled enzyme; format: biochemical; conditions: read-out: Aurora A kinase Ki value
T2 sequence (O14965 1-403): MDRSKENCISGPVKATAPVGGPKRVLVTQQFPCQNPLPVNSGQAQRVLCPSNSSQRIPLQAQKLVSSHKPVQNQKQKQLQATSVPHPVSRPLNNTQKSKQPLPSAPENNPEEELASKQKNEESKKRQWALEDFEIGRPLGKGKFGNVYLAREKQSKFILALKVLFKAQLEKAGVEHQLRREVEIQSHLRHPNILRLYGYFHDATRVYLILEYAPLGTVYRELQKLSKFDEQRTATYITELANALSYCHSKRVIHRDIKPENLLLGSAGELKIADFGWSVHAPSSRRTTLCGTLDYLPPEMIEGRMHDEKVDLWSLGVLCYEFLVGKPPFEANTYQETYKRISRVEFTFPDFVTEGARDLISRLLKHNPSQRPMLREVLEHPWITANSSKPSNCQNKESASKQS
Description: Assays were carried out in a mixture of 100 mM Hepes (pH7.5), 10 mM MgCl2, 1 mM DTT, 25 mM NaCl, 2.5 mM phosphoenolpyruvate, 300 μM NADH, 30 μg/ml pyruvate kinase and 10 μg/ml lactate dehydrogenase. […] Assays were carried out at 30° C. and in the presence of 40 nM Aurora-2.
The plate was preincubated for 10 minutes at 30° C. and the reaction initiated by addition of 10 μl of Aurora-2. Initial reaction rates were determined with a Molecular Devices SpectraMax Plus plate reader over a 10 minute time course. IC50 and Ki data were calculated from non-linear regression analysis using the Prism software package (GraphPad Prism version 3.0cx for Macintosh, GraphPad Software, San Diego Calif., USA).

[1] = COLO 205, Colo205 cells, incubated for 96 hours
[2] = COLO 205, Colo205 cells, incubated for 72 hours

Aurora-1 (Aurora B), sequence (Q96GD4 whole entry): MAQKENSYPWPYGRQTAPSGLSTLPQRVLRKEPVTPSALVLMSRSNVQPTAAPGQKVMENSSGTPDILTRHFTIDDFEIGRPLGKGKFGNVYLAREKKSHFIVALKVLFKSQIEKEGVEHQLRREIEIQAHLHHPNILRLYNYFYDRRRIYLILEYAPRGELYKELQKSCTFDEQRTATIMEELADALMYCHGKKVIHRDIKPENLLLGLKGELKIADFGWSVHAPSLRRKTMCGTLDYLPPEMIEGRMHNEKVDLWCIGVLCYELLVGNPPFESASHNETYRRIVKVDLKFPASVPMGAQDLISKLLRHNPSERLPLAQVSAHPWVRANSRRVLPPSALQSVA

| Ki (Aurora-1 (Aurora B)) [nM] | Ki (Aurora-2 (Aurora A)) [nM] | SMILES | Ki (JAK3) [nM] | IC50 (Colo205 cells; [1]) [nM] | IC50 (Colo205 cells; [2]) [nM] | Ki (JAK3; read-out: JAK3 Ki value) [nM] | IC50 (Colo205 cells; COLO 205, 72 h) [nM] |
| --- | --- | --- | --- | --- | --- | --- | --- |
|  |  | Cc1cc(Nc2cc(N3CC(F)(C4CC4)C3)nc(Sc3ccc(NC(=O)C4CC4)cc3F)n2)n[nH]1 [Compound 170] | 10 to 500 |  | ≤ 30 |  |  |
|  |  | Cc1cc(Nc2cc(N3CC(F)(C4CC4)C3)nc(Sc3ccc(NC(=O)CC4CC4)cc3)n2)[nH]n1 [Compound 171] | 500 to 2000 |  | 30 to 200 |  |  |
| ≤ 10 | ≤ 1 | Cc1cc(Nc2cc(N3CC(F)(C4CC4)C3)nc(Sc3ccc4nc(CC(F)(F)F)n(C)c4c3)n2)[nH]n1 [Compound 187] |  |  | ≤ 30 |  |  |
|  |  | Cc1cc(Nc2cc(N3CC(F)(C4CC4)C3)nc(Sc3ccc(NC(=O)C4CC4(F)F)cc3)n2)[nH]n1 (centres unmarked) [Compound 194] | 10 to 500 |  | ≤ 30 |  |  |
| ≤ 10 | ≤ 1 | CCC1(F)CN(c2cc(Nc3cc(C)n[nH]3)nc(Sc3ccc(NC(=O)CC(F)(F)F)cc3)n2)C1 [Compound 196] |  |  | ≤ 30 |  |  |
| 50 to 2000 | 5 to 200 | CCC(=O)Nc1ccc(Sc2nc(CCN3CCC3)cc(Nc3cc(C)n[nH]3)n2)cc1 [Compound 197] |  |  | > 200 |  |  |
| 50 to 2000 | 5 to 200 | Cc1cc(Nc2cc(N3CCC3)nc(Sc3ccc(NC(=O)c4ncccc4C)cc3)n2)[nH]n1 [Compound 200] |  |  | > 200 |  |  |
| 50 to 2000 | 5 to 200 | CC(=O)Nc1ccc(Nc2nc(Nc3cc(C)n[nH]3)cc(N3CC(F)(C4CC4)C3)n2)cc1 [Compound 201] |  | 50 to 1000 |  |  |  |
| ≤ 10 | ≤ 1 | Cc1cc(Nc2cc(NCC3(C)COC3)nc(Sc3ccc(NC(=O)c4ccccc4Cl)cc3)n2)[nH]n1 [Compound 208] |  |  | 30 to 200 |  |  |
| 50 to 2000 | 1 to 5 | Cc1cc(Nc2cc(N3CC(F)(C4CC4)C3)nc(Nc3ccc4nc(C(F)(F)F)[nH]c4c3)n2)[nH]n1 [Compound 210] |  |  | > 200 |  |  |
|  |  | Cc1cc(Nc2cc(N3CC(F)(C4CC4)C3)nc(Sc3ccc(NC(=O)CC(F)(F)F)nc3)n2)[nH]n1 [Compound 211] | ≤ 10 |  |  |  | ≤ 30 |

| SMILES | Ki (Aurora-1 (Aurora B)) [nM] | Ki (Aurora-2 (Aurora A)) [nM] | Ki (JAK3) [nM] | IC50 (Colo205 cells; [1]) [nM] | IC50 (Colo205 cells; [2]) [nM] | Ki (JAK3; read-out: JAK3 Ki value) [nM] | IC50 (Colo205 cells; COLO 205, 72 h) [nM] |
| --- | --- | --- | --- | --- | --- | --- | --- |
| Cc1cc(Nc2cc(N3CCC3)nc(Sc3ccc(NC(=O)c4cccc(CN(C)C)c4)cc3)n2)[nH]n1 [Compound 138] | 50 to 2000 |  | 500 to 2000 | 50 to 1000 |  |  |  |
| Cc1cc(Nc2cc(N3CC(F)(C4CC4)C3)nc(Sc3ccc4c(c3)CN(CC(F)(F)F)C4=O)n2)[nH]n1 [Compound 179] | ≤ 10 | ≤ 1 |  |  | 30 to 200 | 10 to 500 |  |
| Cc1cc(Nc2cc(N3CC(O)(C4CC4)C3)nc(Oc3ccc4nc(C)sc4c3)n2)[nH]n1 [Compound 180] | 10 to 50 | ≤ 1 | ≤ 10 |  | 30 to 200 |  |  |
| Cc1cc(Nc2nc(Sc3ccc(NC(=O)c4ccccc4Cl)cc3)nc(N3CCC3)c2F)[nH]n1 [Compound 192] | 10 to 50 | 1 to 5 | 500 to 2000 |  | > 200 |  |  |

From patent US8637511B2, “Aminopyrimidines useful as kinase inhibitors” (Vertex Pharmaceuticals Incorporated, priority 2005, dated 2014)
